# US20190240225A1, “COMBINATION OF A BCL-2 INHIBITOR AND A MCL-1 INHIBITOR, USES AND PHARMACEUTICAL COMPOSITIONS THEREOF” (LES LABORATOIRES SERVIER, priority 2016, published 2019)
# System: Karpas 422 human B-cell non-Hodgkin's lymphoma xenografts
# Assay: Lymphoma Karpas422 xenograft model in rats
# Format: in vivo
# Conditions: day 34; p<0.05; Compound 3 20 mg/kg iv QW; Compound 1 150 mg/kg po QW
# Method: Karpas 422 human B-cell non-Hodgkin's lymphoma (NHL) cell line was established from the pleural effusion of a patient with chemotherapy-resistant NHL. The cells were obtained from the DSMZ cell bank and cultured in RPMI-1640 medium (BioConcept Ltd. Amimed,) supplemented with 10% FCS (BioConcept Ltd. Amimed), 2 mM L-glutamine (BioConcept Ltd. Amimed), 1 mM sodium pyruvate (BioConcept Ltd. Amimed) and 10 mM HEPES (Gibco) at 37° C. in an atmosphere of 5% CO2 in air. Cells were maintained between 0.5 and 1.5×10^6 cells/mL. […]
# Tumour growth was monitored regularly post cell inoculation and animals were randomised into treatment groups (n=5) when tumour volume reached appropriate volume. During the treatment period tumour volume was measured about twice a week using calipers. Tumour size, in mm^3, was calculated from: (L×W2×π/6). […]
# Tumour data were analyzed statistically using GraphPad Prism 7.00 (GraphPad Software). If the variances in the data were normally distributed, the data were analyzed using one-way ANOVA with post hoc Dunnett's test for comparison of treatment versus control group. […]
# As a measure of efficacy the % T/C value is calculated at the end of the experiment according to: […]
# Tumour regression was calculated according to: […]
compound,measurement,value
"COc1ccccc1-c1nccc(COc2ccccc2C[C@@H](Oc2ncnc3sc(-c4ccc(F)cc4)c(-c4ccc(OCCN5CCN(C)CC5)c(Cl)c4C)c23)C(=O)O)n1 [Compound 3, (2R)-2-{[(5Sa)-5-{3-chloro-2-methyl-4-[2-(4-methylpiperazin-1-yl)ethoxy]phenyl}-6-(4-fluorophenyl)thieno[2,3-d]pyrimidin-4-yl]oxy}-3-(2-{[2-(2-methoxyphenyl)pyrimidin-4-yl]methoxy}phenyl)propanoic acid]",tumour response versus vehicle group,significantly different from the vehicle group
